Assay results: US10358434B2, “2-(3-pyridinyl)-1H-benzimidazole derivative compound and medicament containing same” (NIHON MEDI-PHYSICS CO., LTD., priority 2014, dated 2019)

What was measured:
[1] = tested on: human adrenal gland section expressing aldosterone-producing adenoma; experiment: In vitro autoradiography using human adrenal adenoma; format: binding
Method in brief: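 Autoradiography readout: PSL in equal-sized ROIs over adenoma (B2) and normal adrenal cortex (B1), expressed as B2/B1 and decay-corrected using half-life, applied activity and plate contact time. Tissue was surgically excised human adrenal, frozen and cut at 7 μm, incubated 10 min with 5-33 kBq/mL tracer in BSA-containing PBS, then imaged after 16-20 h exposure.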

[2] = In vivo kinetics experiment (radioactivity distribution); design: species or system Wistar male rat; details: rat; for Adrenal gland/blood ratio of radioactivity accumulation / Adrenal gland/fat ratio of radioactivity accumulation / Adrenal gland/kidney ratio of radioactivity accumulation / Adrenal gland/liver ratio of radioactivity accumulation / Adrenal gland/muscle ratio of radioactivity accumulation / Adrenal gland/small intestine ratio of radioactivity accumulation / Radioactivity distribution Adrenal gland / Radioactivity distribution Bladder (including urine) / Radioactivity distribution Blood / Radioactivity distribution Fat / Radioactivity distribution Heart / Radioactivity distribution Kidney / Radioactivity distribution Large intestine / Radioactivity distribution Liver / Radioactivity distribution Lung / Radioactivity distribution Muscle (lower limbs) / Radioactivity distribution Remaining whole body / Radioactivity distribution Small intestine / Radioactivity distribution Spleen / Radioactivity distribution Stomach / Radioactivity distribution Testis / Radioactivity distribution Thyroid gland / Radioactivity distribution Whole brain: caudal vein
Method in brief: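 Tissue radioactivity (% ID/g) and adrenal-to-blood, liver, kidney, small intestine, muscle and fat ratios determined at 10, 30 and 60 min post-dose. Tracers (approximately 1 to 3.7 MBq, saline with 1 w/v % ascorbic acid) injected i.v. into caudal vein of anesthetized 9-week male Wistar rats; organs excised, weighed, counted.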

[3] = Plasma stability evaluation (TLC analysis); format: in vitro ADME; details: 37° C., 60 minutes
Method in brief: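 TLC analysis, using each compound's synthesis conditions, judged stability after methanol was added and samples were centrifuged to remove protein. Beforehand, each tracer had spent 60 minutes at 37° C in pooled heparinized normal human plasma.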

FCCn1c(-c2cncc(Cn3ccnc3)c2)nc2cc(F)c([123I])cc21 [[^123I] 400, 5-Fluoro-1-(2-fluoroethyl)-2-[5-(imidazol-1-ylmethyl)pyridin-3-yl]-6-[^123I]iodobenzimidazole]
accumulation of radioactivity in adrenal gland section (autoradiogram) ([1]; FIGS. 18 to 31): accumulation of radioactivity was selectively observed in a region in which aldosterone-producing adenoma had been pathologically observed | B2/B1 accumulation ratio ([1]; section of FIG. 17(a)): 2.89 | B2 (PSL value, aldosterone-producing adenoma) ([1]; section of FIG. 17(a), site 71a): 4611 | B1 (PSL value, normal adrenal cortex) ([1]; section of FIG. 17(a), site 72a): 1596 | accumulation of radioactivity in adrenal gland vs blood and peripheral tissues ([2]; Tables 9 to 22): high accumulation of radioactivity in adrenal gland was observed, in comparison to in blood and peripheral tissues | Adrenal gland/blood ratio of radioactivity accumulation ([2]; 10 min after administration): 28.34 | Adrenal gland/fat ratio of radioactivity accumulation ([2]; 10 min after administration): 89.23 | Adrenal gland/kidney ratio of radioactivity accumulation ([2]; 10 min after administration): 5.85 | Adrenal gland/liver ratio of radioactivity accumulation ([2]; 10 min after administration): 3.02 | Adrenal gland/muscle ratio of radioactivity accumulation ([2]; 10 min after administration): 54.21 | Adrenal gland/small intestine ratio of radioactivity accumulation ([2]; 10 min after administration): 6.95 | Radioactivity distribution Adrenal gland ([2]; 10 min after administration): 9.09 % ID/g | Radioactivity distribution Bladder (including urine) ([2]; 10 min after administration): 0.32 % ID/g | Radioactivity distribution Blood ([2]; 10 min after administration): 0.32 % ID/g | Radioactivity distribution Fat ([2]; 10 min after administration): 0.10 % ID/g | Radioactivity distribution Heart ([2]; 10 min after administration): 0.63 % ID/g | Radioactivity distribution Kidney ([2]; 10 min after administration): 1.54 % ID/g | Radioactivity distribution Large intestine ([2]; 10 min after administration): 0.19 % ID/g | Radioactivity distribution Liver ([2]; 10 min after administration): 2.98 % ID/g | Radioactivity distribution Lung ([2]; 10 min after administration): 1.06 % ID/g | Radioactivity distribution Muscle (lower limbs) ([2]; 10 min after administration): 0.17 % ID/g | Radioactivity distribution Remaining whole body ([2]; 10 min after administration): 0.27 % ID/g | Radioactivity distribution Small intestine ([2]; 10 min after administration): 1.30 % ID/g | Radioactivity distribution Spleen ([2]; 10 min after administration): 5.26 % ID/g | Radioactivity distribution Stomach ([2]; 10 min after administration): 1.03 % ID/g | Radioactivity distribution Testis ([2]; 10 min after administration): 0.07 % ID/g | Radioactivity distribution Thyroid gland ([2]; 10 min after administration): 3.54 % ID/g | Radioactivity distribution Whole brain ([2]; 10 min after administration): 0.02 % ID/g | Adrenal gland/blood ratio of radioactivity accumulation ([2]; 30 min after administration): 40.26 | Adrenal gland/fat ratio of radioactivity accumulation ([2]; 30 min after administration): 147.73 | Adrenal gland/kidney ratio of radioactivity accumulation ([2]; 30 min after administration): 17.90 | Adrenal gland/liver ratio of radioactivity accumulation ([2]; 30 min after administration): 13.82 | Adrenal gland/muscle ratio of radioactivity accumulation ([2]; 30 min after administration): 110.91 | Adrenal gland/small intestine ratio of radioactivity accumulation ([2]; 30 min after administration): 9.24 | Radioactivity distribution Adrenal gland ([2]; 30 min after administration): 16.93 % ID/g | Radioactivity distribution Bladder (including urine) ([2]; 30 min after administration): 1.35 % ID/g | Radioactivity distribution Blood ([2]; 30 min after administration): 0.43 % ID/g | Radioactivity distribution Fat ([2]; 30 min after administration): 0.12 % ID/g | Radioactivity distribution Heart ([2]; 30 min after administration): 0.49 % ID/g | Radioactivity distribution Kidney ([2]; 30 min after administration): 0.95 % ID/g | Radioactivity distribution Large intestine ([2]; 30 min after administration): 0.19 % ID/g | Radioactivity distribution Liver ([2]; 30 min after administration): 1.24 % ID/g | Radioactivity distribution Lung ([2]; 30 min after administration): 0.76 % ID/g | Radioactivity distribution Muscle (lower limbs) ([2]; 30 min after administration): 0.15 % ID/g | Radioactivity distribution Remaining whole body ([2]; 30 min after administration): 0.31 % ID/g | Radioactivity distribution Small intestine ([2]; 30 min after administration): 1.83 % ID/g | Radioactivity distribution Spleen ([2]; 30 min after administration): 5.44 % ID/g | Radioactivity distribution Stomach ([2]; 30 min after administration): 2.24 % ID/g | Radioactivity distribution Testis ([2]; 30 min after administration): 0.12 % ID/g | Radioactivity distribution Thyroid gland ([2]; 30 min after administration): 9.97 % ID/g | Radioactivity distribution Whole brain ([2]; 30 min after administration): 0.02 % ID/g | Adrenal gland/blood ratio of radioactivity accumulation ([2]; 60 min after administration): 29.41 ± 3.13 | Adrenal gland/fat ratio of radioactivity accumulation ([2]; 60 min after administration): 105.17 ± 28.98 | Adrenal gland/kidney ratio of radioactivity accumulation ([2]; 60 min after administration): 18.87 ± 3.12 | Adrenal gland/liver ratio of radioactivity accumulation ([2]; 60 min after administration): 16.66 ± 3.13 | Adrenal gland/muscle ratio of radioactivity accumulation ([2]; 60 min after administration): 95.38 ± 22.07 | Adrenal gland/small intestine ratio of radioactivity accumulation ([2]; 60 min after administration): 6.64 ± 2.31 | Radioactivity distribution Adrenal gland ([2]; 60 min after administration): 11.65 ± 1.54 % ID/g | Radioactivity distribution Bladder (including urine) ([2]; 60 min after administration): 1.27 ± 0.07 % ID/g | Radioactivity distribution Blood ([2]; 60 min after administration): 0.40 ± 0.01 % ID/g | Radioactivity distribution Fat ([2]; 60 min after administration): 0.11 ± 0.02 % ID/g | Radioactivity distribution Heart ([2]; 60 min after administration): 0.35 ± 0.03 % ID/g | Radioactivity distribution Kidney ([2]; 60 min after administration): 0.62 ± 0.08 % ID/g | Radioactivity distribution Large intestine ([2]; 60 min after administration): 0.43 ± 0.19 % ID/g | Radioactivity distribution Liver ([2]; 60 min after administration): 0.70 ± 0.05 % ID/g | Radioactivity distribution Lung ([2]; 60 min after administration): 0.60 ± 0.03 % ID/g | Radioactivity distribution Muscle (lower limbs) ([2]; 60 min after administration): 0.12 ± 0.02 % ID/g | Radioactivity distribution Remaining whole body ([2]; 60 min after administration): 0.33 ± 0.02 % ID/g | Radioactivity distribution Small intestine ([2]; 60 min after administration): 1.85 ± 0.44 % ID/g | Radioactivity distribution Spleen ([2]; 60 min after administration): 5.27 ± 0.89 % ID/g | Radioactivity distribution Stomach ([2]; 60 min after administration): 4.35 ± 0.25 % ID/g | Radioactivity distribution Testis ([2]; 60 min after administration): 0.15 ± 0.01 % ID/g | Radioactivity distribution Thyroid gland ([2]; 60 min after administration): 19.76 ± 1.03 % ID/g | Radioactivity distribution Whole brain ([2]; 60 min after administration): 0.02 ± 0.00 % ID/g | stability in human plasma [3]: hardly metabolized and decomposed in the plasma | Radiochemical purity after incubation in human plasma ([3]; TLC analysis): 88%
